Test results: patent US11180495B2 (Abbisko Therapeutics Co., Ltd., priority 2017, dated 2021)
Read-outs that look alike come from different tables or passages of the source.

Assays:
[1] = tested on: M-NFS-60 mouse myeloid leukemia lymphocytes; experiment: CSF-1R-related cell proliferation experiment (Cell Titer Glo); assay type: cell-based; conditions: 72 h, M-NFS-60 cells, 3 days, CTG
Method: Functional effects of compounds on cell proliferation were evaluated by using Cell Titer Glo (CTG) study in the present invention. M-NFS-60 mouse myeloid leukemia lymphocytes (cat. No. CCBJ078) from National Institutes For Food and Drug Control were cultured in the incubator under conditions of RPMI 1640 (Gibco, cat. No. 11875-119), 10% fetal bovine serum (Gibco, 10099-141), human 10 ng/mL M-CSF macrophage colony-stimulating factor (R&D, cat. No. MVN0915101), 37° C. and 5% CO2. Since ATP is an index for viable cell metabolism, CTG (Promega, #G7573) reagent is a homogeneous detection method for detecting the number of viable cells in the culture by quantifying ATP. Therefore, compound-mediated inhibition for cell proliferation/survival was evaluated by quantifying ATP in cells, and the specific experimental process was as follows: • 1. The cells were plated into a tissue-culture-medium-treated 96-well plate (Costar #3904) with 5,000 cells/well/80 μL fresh culture medium: • 2. 24 hours later, 10 μL culture medium containing testing compound with 10-fold of final concentration was added to each well; • 3. 10 μL of culture medium containing M-CSF with 10-fold of the final concentration was then added to each well: • 4. dosage effect was evaluated by testing the 3-fold serial dilutions of the compound; • 5. after the cells were incubated for 3 days at 37° C. and 5% CO2, the inhibition on cell survival was quantified after 50 μL of CTG was added and the luminescence assay was performed; • 6. the compound concentration leading to half maximal inhibitory (IC50) and the compound concentration leading to absolute half maximal inhibitory (Absolute IC50) were measured by a plate reader (M1000, Tecan) and a four-parameter curve fit in Graphpad Prism 7. D. CSF-1R-Related Cell Proliferation Experiment

CSF-1R = target: T1, CSF-1R (Homo sapiens, UniProt P07333); experiment: CSF-1R in vitro biochemical kinase study (ADP-Glo assay); conditions: 3.95 nM CSF-1R, 500 μM ATP, 30° C. 60 min, read-out: Enzymatic experiment CSF-1R IC50
T1 construct: 3.95 nM of CSF-1R, 500 μM of ATP and 0.2 mg/mL of polypeptide
Method: In the present invention, the inhibitory activity of compounds against the CSF-1R activity was determined by using CSF-1R ADP-Glo assay. The compound-mediated inhibition effect was achieved by inhibiting the production of ADP from consumption of ATP, and the activities of compounds were evaluated by using the ADP-Glo kit (Promega, cat. No. V9101). The specific experimental process was as follows: • 1. The kinase reaction performed in the present invention was carried out in a 384-well plate (Perkinelmer, cat. No. 6007290), and 3.95 nM of CSF-1R, 500 μM of ATP and 0.2 mg/mL of polypeptide (Poly (Glu4, Try1), Sigma, cat. No. P0275) were respectively weighed and added to each well: • 2. following reagents were then added to each well to reach the final reaction system: 40 mM Tris, pH 7.5, 20 mM MgCl2, 0.01% Triton X-100, 0.1 mg/mL BSA, 2.5 mM DTT and 0.1% DMSO; • 3. the reaction was conducted at 30° C. for 60 min; • 4. then an equal volume of stop solution (ADP-Glo) was added to the kinase reaction system; • 5. the mixed solution was incubated at 25° C. for 60 min, and the kinase reaction was then terminated; • 6. a two-fold volume of detection reagent was then added to each well; • 7. the mixed solution was incubated at 25° C. for 30 min; • 8. the compound IC50 value was measured by using a plate reader (Tecan, M1000) and a four-parameter curve was generated in Graphpad Prism. B. KIT/PDGFRA In Vitro Biochemical Kinase Study • 1. Preparation of 1-fold kinase buffer and stop solution • 1.1 1-fold kinase buffer: 50 mM HEPES, pH 7.5, 0.0015% Brij-35. • 1.2 stop solution: 100 mM HEPES, pH 7.5, 0.015% Brij-35, 0.2% Coating Reagent #3 50 mM EDTA • 2. Preparation of compound solution • 2.1 Dilution of compound solution • 1) The final concentration of the compound solution was 40 μM. and the concentration of the prepared stock solution was 50 times of the final concentration, i.e., 2 mM. • 2) 80 μL of 100% DMSO was added to the second well of the 96-well plate, then 20 μL of 10 mM compound solution was added, and thereby 2 mM compound solution was prepared, 60 μL of 100% DMSO was added to other wells, 20 μL of compound was taken from the second well, added to the third well and diluted by 4 times. This serial 4-time dilution was conducted in sequence for the total of 10 concentrations. • 2.2 5-fold compound solution transferred to a reaction plate • 1) 10 μL of solution was taken from each well of the above 96-well plate and added to another 96-well plate, and 90 μL of kinase buffer was added. • 2) 5 μL of solution was taken from the above 96-well plate and added to a 384-well reaction plate. • 2.3 Kinase reaction • 1) KIT/PDGFRA kinase was added to the 1-fold kinase buffer solution to obtain a 2.5-fold kinase solution. • 2) FAM-labeled polypeptide and ATP were added to the 1-fold kinase buffer solution to obtain a 2.5-fold substrate solution. • 3) 10 μL of 2.5-fold kinase solution was added to the 384-well reaction plate, which already contained 5 μL of 5-fold compound in 10% DMSO. And the mixed solution was incubated at room temperature for 10 min. • 4) 10 μL of 2.5-fold substrate solution was added to the 384-well reaction plate. • 5) Kinase reaction and termination: the mixed solution was incubated at 28° C. for a certain period of time, and 25 μL of stop solution was added to stop the reaction. • 2.4 Data reading of Caliper EZ Reader II • 2.5 Calculation of percent inhibition and IC50 • 1) Percent conversion data were copied from the Caliper EZ Reader. • 2) Percent conversion was converted into percent inhibition data, wherein, max referred to percent conversion of the DMSO control, and min referred to percent conversion of the negative control without kinase activity. Percent inhibition=(max−conversion)/(max−min)*100. • 3) The IC50 value was fitted with XLFit excel add-in version 5.4.0.8: Fitting formula: Y=Bottom+(Top−Bottom)/(1+(IC50/X)^HillSlope).

KIT = KIT (Homo sapiens, UniProt P10721); experiment: KIT in vitro biochemical kinase study (Caliper EZ Reader); conditions: FAM-labeled polypeptide, Caliper EZ Reader II; read-out: Enzymatic experiment KIT IC50
Method: (§1) In the present invention, the inhibitory activity of compounds against the CSF-1R activity was determined by using CSF-1R ADP-Glo assay. The compound-mediated inhibition effect was achieved by inhibiting the production of ADP from consumption of ATP, and the activities of compounds were evaluated by using the ADP-Glo kit (Promega, cat. No. V9101). The specific experimental process was as follows: • 1. The kinase reaction performed in the present invention was carried out in a 384-well plate (Perkinelmer, cat. No. 6007290), and 3.95 nM of CSF-1R, 500 μM of ATP and 0.2 mg/mL of polypeptide (Poly (Glu4, Try1), Sigma, cat. No. P0275) were respectively weighed and added to each well: • 2. following reagents were then added to each well to reach the final reaction system: 40 mM Tris, pH 7.5, 20 mM MgCl2, 0.01% Triton X-100, 0.1 mg/mL BSA, 2.5 mM DTT and 0.1% DMSO; • 3. the reaction was conducted at 30° C. for 60 min; • 4. then an equal volume of stop solution (ADP-Glo) was added to the kinase reaction system; • 5. the mixed solution was incubated at 25° C. for 60 min, and the kinase reaction was then terminated; • 6. a two-fold volume of detection reagent was then added to each well; • 7. the mixed solution was incubated at 25° C. for 30 min; • 8. the compound IC50 value was measured by using a plate reader (Tecan, M1000) and a four-parameter curve was generated in Graphpad Prism. B. KIT/PDGFRA In Vitro Biochemical Kinase Study • 1. Preparation of 1-fold kinase buffer and stop solution • 1.1 1-fold kinase buffer: 50 mM HEPES, pH 7.5, 0.0015% Brij-35. • 1.2 stop solution: 100 mM HEPES, pH 7.5, 0.015% Brij-35, 0.2% Coating Reagent #3 50 mM EDTA • 2. Preparation of compound solution • 2.1 Dilution of compound solution • 1) The final concentration of the compound solution was 40 μM. and the concentration of the prepared stock solution was 50 times of the final concentration, i.e., 2 mM. • 2) 80 μL of 100% DMSO was added to the second well of the 96-well plate, then 20 μL of 10 mM compound solution was added, and thereby 2 mM compound solution was prepared, 60 μL of 100% DMSO was added to other wells, 20 μL of compound was taken from the second well, added to the third well and diluted by 4 times. […]

PDGFRA = PDGFRA (Homo sapiens, UniProt P16234); experiment: PDGFRA in vitro biochemical kinase study (Caliper EZ Reader); conditions: FAM-labeled polypeptide, Caliper EZ Reader II; read-out: Enzymatic experiment PDGFRA IC50
Method: as §1

[2] = absolute half maximal inhibitory concentration, read-out: Cytological experiment CSF-1R Absolute IC50
[3] = read-out: Cytological experiment CSF1R IC50

T1 sequence (P07333 20-972): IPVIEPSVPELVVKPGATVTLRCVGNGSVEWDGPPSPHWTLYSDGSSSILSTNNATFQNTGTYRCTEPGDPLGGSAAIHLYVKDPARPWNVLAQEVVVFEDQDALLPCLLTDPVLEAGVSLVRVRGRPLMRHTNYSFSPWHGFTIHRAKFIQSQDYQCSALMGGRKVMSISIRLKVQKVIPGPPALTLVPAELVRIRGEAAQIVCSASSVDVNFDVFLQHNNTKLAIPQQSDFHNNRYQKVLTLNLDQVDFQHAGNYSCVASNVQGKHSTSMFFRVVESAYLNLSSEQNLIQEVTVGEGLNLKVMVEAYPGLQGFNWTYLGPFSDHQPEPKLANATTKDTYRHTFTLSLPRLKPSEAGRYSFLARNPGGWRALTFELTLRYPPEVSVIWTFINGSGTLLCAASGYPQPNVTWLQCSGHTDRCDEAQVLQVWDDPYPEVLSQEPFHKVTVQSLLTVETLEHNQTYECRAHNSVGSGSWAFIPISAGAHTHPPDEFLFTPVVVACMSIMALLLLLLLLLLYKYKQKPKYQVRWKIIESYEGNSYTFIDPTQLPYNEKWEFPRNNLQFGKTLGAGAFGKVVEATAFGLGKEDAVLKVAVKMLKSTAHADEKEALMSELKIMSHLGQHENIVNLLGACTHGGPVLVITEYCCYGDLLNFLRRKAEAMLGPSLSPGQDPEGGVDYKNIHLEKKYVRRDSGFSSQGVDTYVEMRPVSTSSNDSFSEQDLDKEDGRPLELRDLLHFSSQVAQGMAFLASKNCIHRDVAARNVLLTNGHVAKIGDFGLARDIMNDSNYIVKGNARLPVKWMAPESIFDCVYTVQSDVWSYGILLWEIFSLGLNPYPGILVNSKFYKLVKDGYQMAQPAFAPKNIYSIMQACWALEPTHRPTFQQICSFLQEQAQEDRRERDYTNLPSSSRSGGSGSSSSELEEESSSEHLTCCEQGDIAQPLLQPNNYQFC
KIT, sequence (P10721 26-976): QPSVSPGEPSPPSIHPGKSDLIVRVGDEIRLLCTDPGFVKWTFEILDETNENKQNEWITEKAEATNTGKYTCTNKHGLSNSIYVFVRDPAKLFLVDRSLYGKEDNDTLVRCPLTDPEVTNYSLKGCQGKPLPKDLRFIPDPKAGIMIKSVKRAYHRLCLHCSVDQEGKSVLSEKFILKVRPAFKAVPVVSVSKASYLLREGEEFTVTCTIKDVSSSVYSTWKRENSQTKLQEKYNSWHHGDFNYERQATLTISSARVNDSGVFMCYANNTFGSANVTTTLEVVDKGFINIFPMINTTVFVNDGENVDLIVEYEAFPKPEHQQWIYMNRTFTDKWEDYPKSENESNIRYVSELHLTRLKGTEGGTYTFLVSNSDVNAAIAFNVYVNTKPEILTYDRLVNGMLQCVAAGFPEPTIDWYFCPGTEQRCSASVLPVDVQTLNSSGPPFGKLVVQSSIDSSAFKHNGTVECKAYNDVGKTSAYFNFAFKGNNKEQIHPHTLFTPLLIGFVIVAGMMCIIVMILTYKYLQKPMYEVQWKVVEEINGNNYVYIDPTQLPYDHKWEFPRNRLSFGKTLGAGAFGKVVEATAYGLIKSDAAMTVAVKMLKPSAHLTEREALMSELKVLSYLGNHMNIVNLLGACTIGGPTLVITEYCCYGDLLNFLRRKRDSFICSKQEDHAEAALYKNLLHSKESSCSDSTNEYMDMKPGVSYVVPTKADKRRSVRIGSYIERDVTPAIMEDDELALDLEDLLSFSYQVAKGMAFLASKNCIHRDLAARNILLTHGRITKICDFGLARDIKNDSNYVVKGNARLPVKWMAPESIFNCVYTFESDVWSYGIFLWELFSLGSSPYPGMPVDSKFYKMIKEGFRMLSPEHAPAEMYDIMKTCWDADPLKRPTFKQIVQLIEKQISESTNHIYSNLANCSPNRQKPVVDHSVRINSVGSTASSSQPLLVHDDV
PDGFRA, sequence (P16234 24-1089): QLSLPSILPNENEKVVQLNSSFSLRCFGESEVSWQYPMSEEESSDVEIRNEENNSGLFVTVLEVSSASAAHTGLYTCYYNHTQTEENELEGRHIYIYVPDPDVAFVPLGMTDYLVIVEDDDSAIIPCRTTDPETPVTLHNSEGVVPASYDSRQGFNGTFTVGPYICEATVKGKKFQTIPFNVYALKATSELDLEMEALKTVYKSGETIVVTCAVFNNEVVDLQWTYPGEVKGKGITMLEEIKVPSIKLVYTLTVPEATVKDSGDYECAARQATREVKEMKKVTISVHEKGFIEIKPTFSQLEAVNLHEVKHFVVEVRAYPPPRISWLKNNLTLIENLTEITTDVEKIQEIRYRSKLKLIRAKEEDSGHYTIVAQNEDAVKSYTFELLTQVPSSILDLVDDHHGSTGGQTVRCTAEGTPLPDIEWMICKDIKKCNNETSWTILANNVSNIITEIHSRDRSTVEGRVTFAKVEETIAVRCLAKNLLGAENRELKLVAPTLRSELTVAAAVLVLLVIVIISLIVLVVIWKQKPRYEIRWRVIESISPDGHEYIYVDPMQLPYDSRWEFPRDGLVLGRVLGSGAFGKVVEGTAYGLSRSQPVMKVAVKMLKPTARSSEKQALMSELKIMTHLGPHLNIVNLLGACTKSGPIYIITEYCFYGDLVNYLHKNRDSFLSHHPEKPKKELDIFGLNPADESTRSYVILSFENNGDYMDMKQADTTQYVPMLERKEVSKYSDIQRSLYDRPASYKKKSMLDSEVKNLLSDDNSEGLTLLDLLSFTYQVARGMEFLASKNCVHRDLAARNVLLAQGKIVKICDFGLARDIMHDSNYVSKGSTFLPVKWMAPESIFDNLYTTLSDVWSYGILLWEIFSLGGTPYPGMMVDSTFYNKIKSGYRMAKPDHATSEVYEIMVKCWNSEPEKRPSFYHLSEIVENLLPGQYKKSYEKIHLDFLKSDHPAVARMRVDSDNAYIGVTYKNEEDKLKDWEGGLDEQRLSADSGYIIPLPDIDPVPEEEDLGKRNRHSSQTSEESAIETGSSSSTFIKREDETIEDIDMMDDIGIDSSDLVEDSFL

Structure (SMILES) | IC50 [1, 2] [nM] | IC50 [1, 3] [nM] | IC50 (CSF-1R) [nM] | IC50 (KIT) [nM] | IC50 (PDGFRA) [nM]
Cc1nc(-c2cnc(NC(C)C)n(C)c2=O)ccc1Cc1c[nH]c2ncc(Cl)cc12 [Example 10, 5-(5-((5-chloro-1H-pyrrolo[2,3-b]pyridin-3-yl)methyl)-6-methylpyridin-2-yl)-2-(isopropylamino)-3-methylpyrimidin-4(3H)-one] | 31.5 | 40.2 | 32.1 | 13.7 | 681
Cc1nc(-c2cnc(NC(C)C)[nH]c2=O)ccc1Cc1c[nH]c2ncccc12 [Example 1, 5-(5-((1H-pyrrolo[2,3-b]pyridin-3-yl)methyl)-6-methylpyridin-2-yl)-2-(isopropylamino)pyrimidin-4(3H)-one] | 18.8 | 46.5 | 27.4 | 248 | 6910
